The results in this text go back to US10874686B2, “Anthranilyl-adenosinemonosulfamate analogs and uses thereof” (Memorial Sloan-Kettering Cancer Center, priority 2015, dated 2020).

Read-outs that look alike come from different tables or passages of the source.

This series can be described thus: Pharmacokinetics in mice, plasma and lung. The conditions noted are these: 10 mg/kg intraperitoneal. In kind it is in vivo. How it is done:
Twenty-four female mice were weighed and administered anthranilyl-AMS intraperitoneally at 10 mg/kg dose. The animals assigned for 24 hours sampling after dosing were kept in metabolic cages to collect urine and feces at an interval of 0 to 4, 4 to 8, and 8 to 24 hours. Approximately 60 μL of blood samples were collected from retro orbital plexus at 0.08, 0.25, 0.5, 1, 2, 4, 8, and 24 hours following i.p. administration. The blood samples were collected from three mice under light isoflurane anesthesia at each time point in labeled micro centrifuge tube containing K2EDTA solution. Blood samples were centrifuged at 4000 rpm for 10 minutes at 4±2° C. Immediately after plasma collection the animals were humanely euthanized by carbon dioxide asphyxiation, and lung samples were collected from each mouse at 0.08, 0.25, 0.5, 1, 2, 4, 8, and 24 hours. The tissue samples were then homogenized using ice-cold phosphate buffer saline (pH 7.4), and the total homogenate volume was three times of the tissue weight. The collected feces were weighed and homogenized with 9 volumes of ice-cold phosphate buffer saline (pH 7.4), and homogenates were stored below −70° C. until analysis. All samples were stored below −70° C. until sample analysis. The plasma and tissue samples were processed using protein precipitation with acetonitrile (ACN) and analyzed with fit for purpose LC-MS/MS method. Pharmacokinetic parameters were calculated using the non-compartmental analysis tool of Phoenix WinNonlin® (Version 6.3).

On to `Nc1ccccc1C(=O)NS(=O)(=O)OC[C@H]1O[C@@H](n2cnc3c(N)ncnc32)[C@H](O)[C@@H]1O` [anthranilyl-AMS, Anthranilyl-AMS], for which, for the setting “lung”, the AUC lung was 63.9 μg · min/mL or μg · min/g and the Cmax lung amounted to 2000 ± 300 ng/mL. In addition, the half-life (female, mouse, ip, lung, read-out: T1/2 lung) turned out to be 2.17 h. Besides, where the note is “female, mouse, ip, plasma”, the AUC was 5000 ng·h/mL and the highest level (Cmax) was 12100 ± 2900 ng/mL. Further, the half-life (female, mouse, ip, plasma, read-out: T1/2 plasma) was 1.06 h. For the same compound, the Kp (female, mouse, lung / plasma, ip, read-out: lung/plasma ratio) came out at 0.21.

As a reminder, the AUC is the area under the concentration-time curve, a measure of exposure. Low readings indicate low exposure, high ones high exposure. The Cmax is the highest concentration seen after dosing.
